Reference: BindingDB's records for doi:10.1016/j.bmcl.2010.05.078 (University of Arizona, 2010)
pIC50: −log10 of the molar value.

Experiments:
[1] = Agonist activity at mu opioid receptor in guinea pig ileum assessed as inhibition of electrically-stimulated muscle contraction
Melanocortin receptor 4 = Melanocortin receptor 4 (Homo sapiens, UniProt P32245); test: Displacement of Eu-NDP-alphaMSH from human MC4 receptor expressed in human HEK293 cells
Melanocortin receptor 4, sequence (P32245 whole entry): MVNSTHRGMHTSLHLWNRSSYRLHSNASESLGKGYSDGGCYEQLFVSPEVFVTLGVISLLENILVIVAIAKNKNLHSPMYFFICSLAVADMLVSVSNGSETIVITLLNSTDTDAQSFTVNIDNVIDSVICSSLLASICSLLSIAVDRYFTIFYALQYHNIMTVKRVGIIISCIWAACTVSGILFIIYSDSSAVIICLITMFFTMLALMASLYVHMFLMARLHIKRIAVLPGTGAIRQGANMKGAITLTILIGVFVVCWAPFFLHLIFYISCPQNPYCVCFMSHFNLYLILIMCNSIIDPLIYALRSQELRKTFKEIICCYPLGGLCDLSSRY

Row | SMILES | pIC50 [1] | pIC50 (Melanocortin receptor 4)
1 | Cc1cc(O)cc(C)c1C[C@H](N)C(=O)N1CC(=O)N[C@@H](Cc2cnc[nH]2)C(=O)N[C@H](Cc2ccccc2)C(=O)N[C@@H](CCCN=C(N)N)C(=O)N[C@@H](Cc2c[nH]c3ccccc23)C(=O)N[C@H](C(=O)N[C@@H](CC(=O)O)C(=O)N[C@@H](Cc2ccccc2)C(N)=O)CSSC[C@@H](N)C1=O [(S)-3-((4R,7S,10S,13R,16S,22S)-16-((1H-imidazol-5-yl)methyl)-7-((1H-indol-3-yl)methyl)-22-amino-20-((S)-2-amino-3-(4-hydroxy-2,6-dimethylphenyl)propanoyl)-13-benzyl-10-(3-guanidinopropyl)-6,9,12,15,18,21-hexaoxo-1,2-dithia-5,8,11,14,17,20-hexaazacyclotricosane-4-carboxamido)-4-((S)-1-amino-1-oxo-3-phenylpropan-2-ylamino)-4-oxobutanoic acid] | 6.72 | 
2 | CCCC[C@H](NC(=O)[C@H](Cc1c[nH]c2ccccc12)NC(=O)[C@H](CCCN=C(N)N)NC(=O)[C@@H](Cc1ccc2ccccc2c1)NC(=O)[C@H](Cc1cnc[nH]1)NC(=O)[C@H](Cc1ccccc1)NC(=O)[C@@H](C)NC(=O)[C@@H](N)Cc1ccc(O)cc1)C(=O)N[C@@H](CC(=O)O)C(=O)N[C@@H](Cc1ccccc1)C(N)=O [(3S,6S,9S,12S,15R,18S,21S,24R,27S)-18-((1H-imidazol-5-yl)methyl)-9-((1H-indol-3-yl)methyl)-27-amino-3-((S)-1-amino-1-oxo-3-phenylpropan-2-ylcarbamoyl)-21-benzyl-6-butyl-12-(3-guanidinopropyl)-28-(4-hydroxyphenyl)-24-methyl-15-(naphthalen-2-ylmethyl)-5,8,11,14,17,20,23,26-octaoxo-4,7,10,13,16,19,22,25-octaazaoctacosan-1-oic acid] |  | 6.20
